According to patent US20260183316A1, “CANNABICHROMENE-TYPE CANNABINOID COMPOSITIONS, METHODS AND USES THEREOF” (Cronos Group Inc., priority 2022, published 2026):
Several values for one entry are separate records, joined by “and”; a condition that tells them apart may be missing. Equal entries are not always repeated.

Experiments:
[1] = system: Long Evans rats; conditions: CBC 3-30 mg/kg following D9-THC 3 mg/kg intraperitoneal; cited from earlier work
[2] = oral gavage once daily for 14 days, cited from earlier work
[3] = system: rodents; conditions: intravenously administered, high doses (30 and 100 mg/kg); cited from earlier work
[4] = system: C57BL/6 mice; assay: Catalepsy in the bar (ring) holding assay, tetrad; assay type: in vivo; conditions: for Lethargy Emax ± S.E.M.: catalepsy % MPE 60 sec, 5 min after 0.3-30 mg/kg p.o.; for dose-dependent catalepsy: ring holding assay 5 minutes after treatment, 0.3-30 mg/kg p.o.
Experimental: (§1) Female and male C57BL/6 mice between 8 and 12 weeks of age were used for these studies. Animals were group housed at the Laboratory Animal Services Unit (LASU) at the University of Saskatchewan (5 mice/cage for females, 3 mice/cage for males) with a standard 12:12 light-dark cycle, ad libitum access to food and water, and environmental enrichment. All compounds were prepared in a vehicle composed of ethanol and kolliphor in saline (1:1:8) for i.v. tail vein injections or olive oil for oral gavage (p.o.) at the doses indicated in description of the figures. Compounds were administered at the doses indicated in mg/kg body weight, with body weights being measured on the same day as drug administration. Experimenters were blinded to treatment for all assessments and analyses. Animals were purchased from Charles River Labs (Senneville, QC), rather than bred, to reduce animal numbers. At the end of experiments, mice were euthanized via isoflurane overdose and cardiac puncture. In all cases, experiments were performed with the approval of the University Animal Care Committee (UACC) at the University of Saskatchewan (Animal Use Protocol #20200043) and in keeping with the guidelines of the Canadian Council on Animal Care (CCAC).
(§2) Mice were assessed in the ‘tetrad’ battery of physiological and behavioural assessments. This included, in the following order: a bar holding assessment of catalepsy, rectal thermometer assessment of body temperature, a test of nociception in the warm water tail flick assay, and a test of locomotion and anxiety in the open field test (OFT). The precise timing of each measurement are stated in description of the figures. The same animals were used for all four measures of the tetrad.
Catalepsy was assessed in the bar holding assay after compound administration with mice placed so that their forepaws clasped a 0.7-cm ring clamp 4.5 cm above the surface of the testing space. The length of time the ring was held was recorded up to 60 sec (i.e., percent maximum possible effect [MPE] 60 seconds) with the trial ending if the mouse turned its […] or body or made three consecutive escape attempts. Activation of CB1R is associated with increased catalepsy.

[5] = Pharmacokinetic measurement of CBC in blood (HPLC-MS/MS); conditions: analyte CBC
[6] = system: C57BL/6 mice; assay: Nociception in the warm water tail flick assay, tetrad; assay type: in vivo; conditions: for ED50: Mus musculus, po, 20 min, tail flick 52° C., read-out: Pain relief ED50 (95% C.I.); for ED50 / Pain relief Emax ± S.E.M.: 20 min after 0.3-30 mg/kg p.o.; for Pain relief Emax ± S.E.M.: tail flick % MPE 20 sec; for dose-dependent reduction in pain sensation: warm water tail flick 20 minutes after administration, 0.3-30 mg/kg p.o.
Experimental: as §1, §2
Activation of CB1R is associated with elevated tail-flick latency (i.e. less nociception as indicated by the mouse keeping their tail in the water longer).

[7] = system: C57BL/6 mice; assay: y-maze, modelled exploratory behaviour and cognition; assay type: in vivo; conditions: 10 mg/kg p.o., 40 min after administration
Experimental: (§3) In addition to the physiological assessment of the tetrad, mice were subjected to several behavioural assessments detailed here. These experiments followed a set timeline beginning 30 minutes after compound administration, based on an approximation that the maximum blood concentration of drug occurred 30-60 minutes after animals had received oral gavage. In these experiments the same type of mice were used for elevated plus maze, y-maze, and forced swim test back-to-back-to-back; however, this was a separate cohort of mice from those used in tetrad or PK experiments.
Modelled exploratory behaviour and cognition—the y-maze: The y-maze consists of three […] long×15 cm wide arms equally spaced 120° apart. Mice were allowed to habituate to the y-maze with one arm closed off (the novel arm) for 15 minutes 1 day prior to the experiment. On testing day, mice were placed in the centre space the y-maze facing the novel arm. Movement and arm entries were recorded for 5 min beginning 40 minutes after drug administration. Total distance travelled, arm entries, and % correct alternations between each arm were recorded on a video camera and scored by an individual blinded to treatment group.

[8] = system: C57BL/6 mice; assay: Elevated plus maze (EPM), modelled anxiety; assay type: in vivo; conditions: 10 mg/kg p.o., 30 minutes after treatment; for time spent in the closed arms of the EPM: post-hoc no differences
Experimental: as §3
Modelled anxiety—the elevated plus maze: Mice were placed in the centre space of an elevated plus maze (EPM) standing 45 cm above the floor and having 2 closed-walled arms and 2 open arms each measuring 45 cm long. Mice were placed facing an open arm and their movement recorded for 5 minutes beginning 30 minutes after drug administration. Total distance travelled, arm entries, and time spent in each arm was recorded on a video camera and scored by an individual blinded to treatment group.

[9] = system: C57BL/6 mice; assay: Body temperature by rectal thermometer, tetrad; assay type: in vivo; conditions: for dose-dependent hypothermia: 10 min after administration, 0.3-30 mg/kg p.o.; for Body temperature Emax ± S.E.M.: change in body temperature 10 min after 0.3-30 mg/kg p.o.
Experimental: as §1, §2
Body temperature was measured after compound administration by using a rectal thermometer. Activation of CB1R is associated with reduced body temperature.

[10] = system: C57BL/6 mice; assay: Open field test (OFT): locomotion and time in central quadrant; assay type: in vivo; conditions: for dose-dependent reduction in movement in the OFT / time spent in the center of the OFT (anxiety-reducing effect): 30 minutes after administration, 0.3-30 mg/kg p.o.; for ED50: po, 0.5 h; for Movement Emax ± S.E.M.: OFT distance in 5 minutes
Experimental: as §1, §2
Locomotion was measured in the open field test (OFT) after compound administration. Mice were placed in the centre of an open chamber measuring 1 m×1 m for 5 minutes. Total distance travelled and time spent in the central quadrant of the field are recorded on a video camera, and the video analyzed in EthoVision XT (Noldus Information Technology Inc., Leesburg, VA).

[11] = system: C57BL/6 mice; assay: Forced swim test (FST), modelled behavioural despair and resiliency; assay type: in vivo; conditions: 10 mg/kg p.o., 50 min after administration
Experimental: as §3
Modelled behavioural despair and resiliency—the forced swim test: Mice were placed in 800 mL of 22° C. water in a clear beaker with a 10 cm diameter such that the depth of water was approximately 10-11 cm. Mice were allowed to swim and their movement recorded for 5 minutes beginning 50 minutes after drug administration. Time spent swimming and time spent immobile was recorded on a video camera and scored by an individual blinded to treatment group.

[12] = Pharmacokinetic measurement of THC in blood (HPLC-MS/MS); conditions: analyte THC
[13] = system: dogs; conditions: cited from earlier work
[14] = Mus musculus, OFT locomotion 30 min after 0.3-30 mg/kg p.o., read-out: Movement ED50 (95% C.I.)
[15] = time in central quadrant of OFT, 30 min after 0.3-30 mg/kg p.o.

## CCCCCc1cc(O)c2c(c1)OC(C)(CCC=C(C)C)C=C2 (racemic) [CBC, cannabichromene]
[1]
  perceptual effects of D9-THC: did notsignificantly alter the perceptual effects of D9-THC
  response rates: decrease response rates
[2]
  concentrations in brain tissue: highest concentrations in brain tissue
[2]; of the four cannabinoids tested
  maximum observed concentration and AUC in plasma: highest maximum observed concentration and AUC
[3]
  tetrad effects: produced locomotor suppression, catalepsy, and hypothermia consistently at high doses
[4]
  Lethargy Emax ± S.E.M.: 1.1 ± 0.16 %
  dose-dependent catalepsy: no dose-dependent catalepsy
[5]; 10 mg/kg i.v., Combined
  F: 100%
[5]; 10 mg/kg i.v., Female
  F: 100%
[5]; 10 mg/kg i.v., Male
  F: 100%
[5]; 10 mg/kg p.o., Combined
  F: 39%
[5]; 10 mg/kg p.o., Female
  F: 53%
[5]; 10 mg/kg p.o., Male
  F: 27%
[6]
  ED50: > 30 mg/kg
  Pain relief Emax ± S.E.M.: 37 ± 13%
  dose-dependent reduction in pain sensation: dose-dependent pain-relieving effects
[7]
  % correct alternations in the y-maze: increased % correct alternations compared to vehicle
[8]
  open arm entries in the EPM: trend toward CBC producing more open arm entries than other groups, this was not statistically significant
  time spent in the closed arms of the EPM: trend toward less time spent in the closed arms
[9]
  dose-dependent hypothermia: no dose-dependent hypothermia
  Body temperature Emax ± S.E.M.: 0.53 ± 0.27 °C
[10]
  dose-dependent reduction in movement in the OFT: dose-dependent reduction in movement
  time spent in the center of the OFT (anxiety-reducing effect): anxiety-reducing effect
[10]; [14]
  ED50: 35 mg/kg
[10]; 30 min after 0.3-30 mg/kg p.o.
  Movement Emax ± S.E.M.: 1,600 ± 340 cm
[10]; [15]
  Anxiety-reduction Emax ± S.E.M.: 32 ± 7.2 s

## CCCCCc1cc(O)c2c(c1)OC(C)(C)[C@@H]1CCC(C)=C[C@@H]21 [THC, tetrahydrocannabinol]
[11]
  time swimming and time immobile in the FST compared to vehicle: further suppressed swimming time and increased immobile time
[4]; Mus musculus, po, 5 min, catalepsy 5 min after 0.3-30 mg/kg p.o., male and female combined, read-out: Lethargy ED50 (95% C.I.)
  ED50: ~12 mg/kg
[4]
  Lethargy Emax ± S.E.M.: 76% and 76 ± 16%
  dose-dependent catalepsy: increasing catalepsy in a dose-dependent manner
[6]
  ED50: ~3.8 mg/kg
  Pain relief Emax ± S.E.M.: 57% and 57 ± 16%
  dose-dependent reduction in pain sensation: dose-dependent reduction in pain sensation
[7]
  % correct alternations in the y-maze: appeared to reduce correct alternations
  overall locomotion in the y-maze: reduced overall locomotion
  total arm entries in the y-maze: lower
[12]; 10 mg/kg i.v., Combined
  F: 100%
[12]; 10 mg/kg i.v., Female
  F: 100%
[12]; 10 mg/kg i.v., Male
  F: 100%
[12]; 10 mg/kg p.o., Combined
  F: 15%
[12]; 10 mg/kg p.o., Female
  F: 33%
[12]; 10 mg/kg p.o., Male
  F: 3.7%
[8]
  overall movement in the EPM: reduced overall movement in the EPM, although this change was not statistically significant
  time in the center of the EPM: more time in the center compared to 1:6.92 (CBC:THC)
  time spent in the closed arms of the EPM: trend toward less time spent in the closed arms
[8]; not statistically significant
  time in the open arms of the EPM: appeared to suppress time in the open arms
[9]
  dose-dependent hypothermia: dose-dependent hypothermia
  Body temperature Emax ± S.E.M.: −2.8 °C and −2.8 ± 0.20 °C
[9]; Mus musculus, po, 10 min, 10 min after 0.3-30 mg/kg p.o., read-out: Body temperature ED50 (95% C.I.)
  ED50: ~0.2 mg/kg
[10]
  dose-dependent reduction in movement in the OFT: dose-dependent reduction in movement
  time spent in the center of the OFT (anxiety-reducing effect): dose-dependent increase in the total time spent in the center of the OFT
[10]; [14]
  ED50: ~6.6 mg/kg
[10]; Mus musculus, time in central quadrant of OFT, 30 min after 0.3-30 mg/kg p.o., read-out: Anxiety-reduction ED50 (95% C.I.)
  ED50: > 30 mg/kg
[10]; Mus musculus, OFT, versus vehicle-treated level of approximately 3,300 cm in 5 minutes, read-out: reduction in movement at maximum effect
  Emax: 48%
[10]; 30 min after 0.3-30 mg/kg p.o.
  Movement Emax ± S.E.M.: 1,700 cm and 1,700 ± 980 cm
[10]; [15]
  Anxiety-reduction Emax ± S.E.M.: 81 ± 72 s

## CCCCCc1cc(OC(C)=O)c2c(c1)OC(C)(C)[C@@H]1CCC(C)=C[C@@H]21 [THC-OAc, tetrahydrocannabinol-o-acetate]
[13]
  degree of ataxia compared with Δ9-THC: 2 fold
